Source: patent US9120776B2, “Condensed heterocyclic compound” (Takeda Pharmaceutical Company Limited, priority 2011, dated 2015)

Experiments:
Th17 cells [1] = experiment: Human Th17 Cell Differentiation Test (IL-17A in culture supernatant, ELISA); type: cell-based; conditions: 144 h; inhibitory rate at 10 μM of test compound; human CD4 positive naive T cells, 6 days, IL-17A by ELISA
Description: CD4 positive naive T cells were isolated from peripheral blood mononuclear cells (PBMC) collected from human peripheral blood by a density gradient centrifugation method. The CD4 positive naive T cells were seeded in a 96 well plate (2×10^4 cells/well), and stimulated (37° C. for culture) with anti-CD 3/28Ab Dynabeads (Invitrogen) for 6 days in the presence of IL-1β, IL-6, IL-23, TGFβ, anti-IFNγ Ab (BioLegend) and anti-IL-4 Ab (BioLegend) to differentiate into Th17 cells. The compound was dissolved in DMSO and then added thereto. After culture for 6 days, the concentration of IL-17A in the culture supernatant obtained by centrifugation was measured by ELISA to evaluate differentiation of the Th17 cells.

RORγt [2] = molecular target: T1, RORγt (Homo sapiens, UniProt P51449); experiment: Cofactor Recruitment Test (Alpha Screen, biotinylated SRC-1 peptide); type: biochemical; design: histidine tag (implied by the Histidine Detection Kit); conditions: signal value inhibitory rate at test compound 1 μM
T1 sequence (P51449 1-497 isoform P51449-2): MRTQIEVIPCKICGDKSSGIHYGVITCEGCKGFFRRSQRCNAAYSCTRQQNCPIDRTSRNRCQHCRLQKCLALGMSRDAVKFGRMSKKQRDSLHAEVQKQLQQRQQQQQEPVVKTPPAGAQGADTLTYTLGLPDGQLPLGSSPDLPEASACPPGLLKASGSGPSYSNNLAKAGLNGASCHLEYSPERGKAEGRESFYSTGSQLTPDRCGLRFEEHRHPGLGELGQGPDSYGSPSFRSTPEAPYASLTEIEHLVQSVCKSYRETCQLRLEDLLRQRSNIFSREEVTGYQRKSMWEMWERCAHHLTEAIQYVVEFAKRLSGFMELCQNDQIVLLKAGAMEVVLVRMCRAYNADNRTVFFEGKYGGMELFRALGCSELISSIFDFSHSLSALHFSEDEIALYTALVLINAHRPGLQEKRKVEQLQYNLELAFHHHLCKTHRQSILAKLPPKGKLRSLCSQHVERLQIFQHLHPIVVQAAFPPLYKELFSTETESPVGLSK
Description: Cofactor recruitment test was performed by Alpha Screen (Histidine Detection Kit, PerkinElmer) method. First, a test compound diluted with an assay buffer (50 mM Tris-HCl (pH 7.5), 50 mM KCl, 1 mM DTT, 0.1% BSA) was added to a 384 well plate by 5 μL each. […] The mixture was stood in a dark place for 1 hr, and the signal value was measured by Envision (PerkinElmer).

RORγt [3] = molecular target: T1, RORγt; experiment: RORγt Binding Test (TR-FRET, fluorescent-labeled cholesterol); design: histidine tag (implied by the Histidine Detection Kit); conditions: binding inhibitory rate of fluorescent-labeled cholesterol to RORγt at test compound 1 μM
Description: The binding activity of the test compound to RORγt was measured by a time resolved fluorescence resonance energy transfer method (TR-FRET) utilizing histidine-tagged RORγt, fluorescent-labeled cholesterol (BODIPY-cholesterol, AVIVA) and terbium-labeled anti-histidine tag antibody (Invitrogen). First, a test compound diluted with an assay buffer (20 mM Tris-HCl (pH 7.5), 100 mM NaCl, 1 mM DTT, 0.1% BSA) was added to a 384 well plate by 3 μL each. Then, RORγt diluted with an assay buffer to 240 nM was added by 3 μL each, after which fluorescent-labeled cholesterol diluted with the assay buffer to 12 μM was added by 3 μL each, and the mixture was stood at room temperature for 20 min. Thereafter, a terbium-labeled anti-histidine tag antibody diluted with the assay buffer to 8 nM was added by 3 μL each. The mixture was stood at room temperature for 20 min, and fluorescence intensity (excitation wavelength 320 nm, fluorescence wavelength 520 nm, delay time 100 microseconds) was measured by Envision (PerkinElmer).

Th17 cells [4] = experiment: Mouse Th17 Cell Differentiation Test (IL-17A in culture supernatant, ELISA); type: cell-based; conditions: 96 h, inhibitory rate at 10 μM of test compound, mouse CD4 positive naive T cells, 4 days, IL-17A by ELISA
Description: CD4 positive naive T cells were collected from the spleen cells of BALB/c mice (female, 8-11w, Charles River Laboratories Japan, Inc.) using CD4+CD62L+ T Cell Isolation kit II (Miltenyi Biotec). The CD4 positive naive T cells in a 96 well plate (3×10^5 cells/well) were stimulated (37° C. for culture) with anti-mouse CD3ε antibody (Bio X cell) (10 μg/mL, solid phase) and anti-CD28 antibody (Bio X cell) (5 μg/mL) for 4 days in the presence of anti-IFN-γ antibody (BioLegend), anti-IL-4 antibody (BioLegend), anti-IL-2 antibody (BioLegend), IL-6, TGF-β and IL-23 to differentiate into Th17 cells. The compound was dissolved in DMSO and then added thereto. The cells were cultured under these conditions for 4 days, and differentiation of the Th17 cells was evaluated by using the concentration of IL-17A, which was measured by ELISA, in the culture supernatant obtained by centrifugation.

RORγt [5] = molecular target: T1, RORγt; experiment: Jurkat Reporter Test (human IL-17 ROR response element luciferase, RORγt vector); type: cell-based; conditions: luminescence level inhibitory rate at test compound 3 μM, Jurkat cells; read-out: inhibitory rate (%)
Description: The Jurkat cells used for the reporter test were cultured in a culture medium (RPMI (Invitrogen), 10% FCS (AusGeneX), 100 U/mL penicillin, 100 μg/mL streptomycin). On the day of the test, 4×10^7 cells were recovered by a centrifugal operation (1000 rpm, 5 min.) and suspended in PBS (phosphate buffered saline) (Invitrogen). Thereafter, the cells were recovered again by a centrifugal operation, and suspended in 2 mL of R buffer (NEON transfection kit, Invitrogen). […] Gene transfer was performed by Electroporation apparatus (NEON, Invitrogen) under the conditions of pulse voltage 1350 V, interval 10 milliseconds, number of times 3. The cells after gene transfer were suspended in 40 mL of a reaction medium (RPMI, 10% Lipid reduced FCS (HyClone), 10 mM HEPES (pH 7.5), 100 U/mL penicillin, 100 μg/mL streptomycin, 5 μM lovastatin), and plated in a 96 well plate by 90 μL each. A test compound diluted with the reaction medium was added by 10 μL each, and the cells were cultured overnight in an incubator. Bright-Glo (Promega) was added by 100 μL each, and the mixture was stirred at room temperature for 10 min, and the luminescence level was measured by Envision (PerkinElmer).

human PBMC = experiment: IL17 Production Test in Human PBMC; type: cell-based; conditions: 72 h, inhibitory rate at 10 μM of test compound, anti-CD3/CD28 stimulation, 3 days, IL-17A by ELISA
Description: Peripheral blood mononuclear cells (PBMC) collected from human peripheral blood by a density gradient centrifugation method were stimulated by Dynabeads (registered trade mark; anti-CD3/CD28 antibody) and cultured at 37° C. for 3 days. The compound was dissolved in DMSO and then added thereto. After culture for 3 days under such conditions, the concentration of IL-17A in the culture supernatant obtained by centrifugation was measured by ELISA to evaluate the effect of the compound on IL-17 production.

inhibition at 1 µM (RORγt [2]) [%] | inhibition at 1 µM (RORγt [3]) [%] | inhibition at 3 µM (RORγt [5]) [%] | SMILES | inhibition at 10 µM (Th17 cells [1]) [%] | inhibition at 10 µM (Th17 cells [4]) [%] | inhibition at 10 µM (human PBMC) [%] | inhibition at 10 µM (Th17 cells [4]; Mus musculus, CD4 positive) [%]
99.7 | 88.2 | 82.6 | CCn1c(C)c(C)c2cc(NC(=O)CC(C)CC(=O)Nc3ccc(C#N)cc3)ccc21 (stereo not drawn) [Example 3, N-(4-cyanophenyl)-N′-(1-ethyl-2,3-dimethyl-1H-indol-5-yl)-3-methylpentanediamide] | 80 | 97.1 | 73.3 | –
– | – | – | CCn1c2c(c3cc(NC(=O)CC(C)CC(=O)Nc4ccc(C#N)cc4)ccc31)CCCC2 (stereo not drawn) [Example 4, N-(4-cyanophenyl)-N′-(9-ethyl-2,3,4,9-tetrahydro-1H-carbazol-6-yl)-3-methylpentanediamide] | 100 | – | 88.3 | 97
– | – | – | CCn1c2ccccc2c2cc(NC(=O)CCCC(=O)Nc3ccc(C#N)cc3)ccc21 [Example 16, N-(4-cyanophenyl)-N′-(9-ethyl-9H-carbazol-3-yl)pentanediamide] | 96.2 | – | 91 | 96
– | – | – | CCn1c2ccccc2c2cc(NC(=O)CC(C)CC(=O)Nc3ccc(C#N)c(C(F)(F)F)c3)ccc21 (stereo not drawn) [Example 18, N-[4-cyano-3-(trifluoromethyl)phenyl]-N′-(9-ethyl-9H-carbazol-3-yl)-3-methylpentanediamide] | 98.5 | – | 96 | 95.8
101 | 98.9 | 103 | CCCn1c2c(c3cc(NC(=O)CC(C)CC(=O)Nc4ccc(C#N)cc4)ccc31)CCCC2 (stereo not drawn) [Example 19, N-(4-cyanophenyl)-3-methyl-N′-(9-propyl-2,3,4,9-tetrahydro-1H-carbazol-6-yl)pentanediamide] | 95.2 | 95.8 | 87 | –
101 | 98.7 | 102 | CC(C)Cn1c2c(c3cc(NC(=O)CC(C)CC(=O)Nc4ccc(C#N)cc4)ccc31)CCCC2 (stereo not drawn) [Example 20, N-(4-cyanophenyl)-3-methyl-N′-[9-(2-methylpropyl)-2,3,4,9-tetrahydro-1H-carbazol-6-yl]pentanediamide] | 89.9 | 95.8 | 84 | –
100 | 94.4 | 92.5 | CCn1c2ccccc2c2cc(NC(=O)CC(C)(O)CCOc3ccc(C#N)c(Cl)c3)ccc21 (stereo not drawn) [Example 30, 5-(3-chloro-4-cyanophenoxy)-N-(9-ethyl-9H-carbazol-3-yl)-3-hydroxy-3-methylpentanamide] | 100 | 96.1 | 100 | –
